According to US10307439B2, “Substituted nucleosides, nucleotides and analogs thereof” (priority 2014, dated 2019):

Assays:
[1] = tested on: human β-coronavirus strain OC43 or human α-coronavirus strain 229E; test: Coronavirus assay (cytopathic effect, CellTiter-Glo, HeLa or MRC-5 cells); format: cell-based; conditions: Betacoronavirus 1; for inhibition: at one or more of the concentrations 75 μM, 10 μM and 2 μM, strain OC43 or 229E not specified; for EC50: coronavirus strain OC43 or 229E not specified, 4 h pre-incubation, 5 days
MERS = test: microbe, parasite or virus in culture; format: cell-based; conditions: Middle East respiratory syndrome-related coronavirus, 96 h
SARS polymerase = SARS polymerase (Severe acute respiratory syndrome coronavirus, UniProt P0C6X7); test: biochemical; parameters: species or system SARS virus
[2] = tested on: TC-83 strain Venezuelan equine encephalitis virus; test: microbe, parasite or virus in culture; format: cell-based
Chikungunya virus = test: Chikungunya assay; format: cell-based; conditions: 2 h pre-incubation

CCOc1nc(N)nc2c1ncn2[C@@H]1O[C@](F)(COP(=O)(N[C@@H](C)C(=O)OC(C)C)Oc2ccccc2)[C@@H](F)[C@@]1(C)O (stereo partly drawn) [Compound 22]
inhibition [1]: ≥ 50%

CCOc1nc(N)nc2c1ncn2[C@@H]1O[C@H](COP(=O)(N[C@@H](C)C(=O)OC2CCCCC2)Oc2ccccc2)[C@@H](O)[C@@]1(C)Cl (stereo partly drawn) [Compound 267]
EC90 (MERS): 10 to 50 µM

C#C[C@]1(O)[C@H](n2cnc3c(OCC)nc(N)nc32)O[C@](F)(CO[P@](=O)(N[C@@H](C)C(=O)OC2CCCCC2)Oc2ccccc2)[C@H]1O [Compound 27]
EC90 (MERS): 10 to 50 µM

C[C@H](NP(=O)(OC[C@@]1(F)O[C@@H](n2cnc3c(=O)[nH]c(N)nc32)[C@](C)(O)[C@@H]1F)Oc1ccccc1)C(=O)OC1CCCCC1 (stereo partly drawn) [Compound 14]
inhibition [1]: ≥ 50%

C[C@]1(O)[C@H](n2cnc3c(=O)[nH]c(N)nc32)O[C@](F)(COP(=O)(O)OP(=O)(O)OP(=O)(O)O)[C@H]1F [Compound 101]
IC50 (SARS polymerase): < 10 µM

C[C@@]1(O)[C@H](O)[C@@](CF)(COP(=O)(O)OP(=O)(O)OP(=O)(O)O)O[C@H]1n1cnc2c(=O)[nH]c(N)nc21 [Compound 34]
IC50 (SARS polymerase): < 10 µM

CCOc1nc(N)nc2c1ncn2[C@@H]1O[C@](F)(COP(=O)(OCOC(=O)OC(C)C)OCOC(=O)OC(C)C)[C@@H](F)[C@@]1(C)O [Compound 57]
inhibition [1]: ≥ 50% | EC50 [1]: < 10 µM | EC90 (MERS): < 10 µM

C#C[C@]1(F)[C@H](n2cnc3c(=O)[nH]c(N)nc32)O[C@](F)(COP(=O)(O)OP(=O)(O)OP(=O)(O)O)[C@H]1O [Compound 123]
IC50 (SARS polymerase): < 10 µM

CCOc1nc(N)nc2c1ncn2[C@@H]1O[C@](F)(COP(=O)(N[C@@H](C)C(=O)OCC(C)(C)C)Oc2cccc3ccccc23)[C@@H](O)[C@@]1(C)F (stereo partly drawn) [Compound 234]
inhibition [1]: ≥ 50%

CCOc1nc(N)nc2c1ncn2[C@@H]1O[C@](F)(CO[P@@](=O)(N[C@@H](C)C(=O)OC2CCCCC2)Oc2ccccc2)[C@@H](O)[C@@]1(C)F (single isomer, unassigned) [Compound 212b]
inhibition [1]: ≥ 50% | EC50 [1]: < 10 µM

CCOc1nc(N)nc2c1ncn2[C@@H]1O[C@](F)(COP(=O)(N[C@@H](C)C(=O)OC2CCCCC2)Oc2ccccc2)[C@@H](F)[C@@]1(C)O (stereo partly drawn) [Compound 16]
EC50 [1]: < 10 µM

C[C@H](NP(=O)(OC[C@H]1O[C@@H](n2cnc3c(=O)[nH]c(N)nc32)[C@](C)(Cl)[C@@H]1O)Oc1ccccc1)C(=O)OC1CCCCC1 (stereo partly drawn) [Compound 266]
EC90 (MERS): < 10 µM

C#C[C@]1(O)[C@H](n2cnc3c(=O)[nH]c(N)nc32)O[C@](F)(COP(=O)(O)OP(=O)(O)OP(=O)(O)O)[C@H]1F [Compound 103]
IC50 (SARS polymerase): < 10 µM

CCOc1nc(N)nc2c1ncn2[C@@H]1O[C@](F)(COP(=O)(OCOC(=O)OC(C)C)OCOC(=O)OC(C)C)[C@@H](O)[C@@]1(C)F [Compound 83]
inhibition [1]: ≥ 50% | EC50 [1]: < 10 µM

CC(C)(C)C(=O)OCOP(=O)(OCOC(=O)C(C)(C)C)OC[C@H]1O[C@@H](n2ccc(=O)[nH]c2=O)[C@](C)(O)[C@@H]1O [Compound 265]
EC50 [2]: < 10 µM | EC90 (MERS): 10 to 50 µM | EC50 (Chikungunya virus): < 10 µM

C#C[C@@]1(O)[C@H](O)[C@@H](COP(=O)(O)OP(=O)(O)OP(=O)(O)O)O[C@H]1n1cnc2c(=O)[nH]c(N)nc21 [Compound 203]
IC50 (SARS polymerase): < 10 µM

C[C@@]1(Cl)[C@H](O)[C@@H](COP(=O)(O)OP(=O)(O)OP(=O)(O)O)O[C@H]1n1cnc2c(=O)[nH]c(N)nc21 [Compound 246]
IC50 (SARS polymerase): < 10 µM

CC(C)OC(=O)OCOP(=O)(OCOC(=O)OC(C)C)OC[C@@]1(F)O[C@@H](n2ccc(=O)[nH]c2=O)[C@](C)(O)[C@@H]1O [Compound 9]
EC50 [2]: < 10 µM | EC50 (Chikungunya virus): < 10 µM

CCOc1nc(N)nc2c1ncn2[C@@H]1O[C@](F)(COP(=O)(OCOC(=O)OC(C)C)OCOC(=O)OC(C)C)[C@@H](O)[C@@]1(C)O [Compound 55]
EC50 [2]: < 10 µM | inhibition [1]: ≥ 50% | EC50 [1]: < 10 µM | EC50 (Chikungunya virus): < 10 µM

CCOc1nc(N)nc2c1ncn2[C@@H]1O[C@](F)(CO[P@](=O)(N[C@@H](C)C(=O)OC2CCCCC2)Oc2ccccc2)[C@@H](O)[C@@]1(C)F [Compound 25]
EC50 [2]: < 10 µM | EC90 (MERS): 10 to 50 µM | EC50 (Chikungunya virus): < 10 µM

CCOc1nc(N)nc2c1ncn2[C@@H]1O[C@](F)(CO[P@](=O)(N[C@@H](C)C(=O)OC2CCCCC2)Oc2ccccc2)[C@@H](O)[C@@]1(C)F (single isomer, unassigned) [Compound 212a]
inhibition [1]: ≥ 50% | EC50 [1]: < 10 µM

C[C@]1(F)[C@H](n2cnc3c(=O)[nH]c(N)nc32)O[C@](F)(COP(=O)(O)OP(=O)(O)OP(=O)(O)O)[C@H]1O [Compound 19]
IC50 (SARS polymerase): < 10 µM

CCOc1nc(N)nc2c1ncn2[C@@H]1O[C@](CF)(COP(=O)(N[C@@H](C)C(=O)OC2CCCCC2)Oc2ccccc2)[C@@H](O)[C@@]1(C)O (stereo partly drawn) [Compound 36]
EC90 (MERS): < 10 µM

CCOc1nc(N)nc2c1ncn2[C@@H]1O[C@]2(F)COP(=O)(OC(C)C)O[C@H]2[C@@]1(C)F (stereo partly drawn) [Compound 225]
inhibition [1]: ≥ 50%

C[C@@]1(F)[C@H](O)[C@@](CF)(COP(=O)(O)OP(=O)(O)OP(=O)(O)O)O[C@H]1n1cnc2c(=O)[nH]c(N)nc21 [Compound 162]
IC50 (SARS polymerase): < 10 µM

CCOc1nc(N)nc2c1ncn2[C@@H]1O[C@](CN=[N+]=[N-])(COP(=O)(OCOC(=O)OC(C)C)OCOC(=O)OC(C)C)[C@@H](O)[C@H]1F [Compound 179]
EC50 [1]: < 10 µM
